In PubChem BioAssay (NCI):
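Method: 48-hour compound exposure of cells in 96-well plates, five concentrations, linear interpolation of endpoints. TGI is the concentration that stops growth completely.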

Assays:
Experiment in all cases: NCI-60 cell line screen, 48 h
HOP-92 NSCLC = system: HOP-92 NSCLC
PC-3 prostate = system: PC-3 prostate
MOLT-4 leukemia = system: MOLT-4 leukemia
COLO 205 colon = system: COLO 205 colon
BT-549 breast = system: BT-549 breast
U251 CNS = system: U251 CNS
CAKI-1 renal = system: CAKI-1 renal
A498 renal = system: A498 renal
M14 melanoma = system: M14 melanoma
HCC-2998 colon = system: HCC-2998 colon
MDA-N = system: MDA-N
786-0 renal = system: 786-0 renal
NCI-H522 lung = system: NCI-H522 lung
EKVX NSCLC = system: EKVX NSCLC
SK-MEL-5 melanoma = system: SK-MEL-5 melanoma
RXF 393 renal = system: RXF 393 renal
OVCAR-3 ovarian = system: OVCAR-3 ovarian
SK-MEL-2 melanoma = system: SK-MEL-2 melanoma
MDA-MB-435 = system: MDA-MB-435
HOP-62 NSCLC = system: HOP-62 NSCLC
RPMI-8226 leukemia = system: RPMI-8226 leukemia
NCI-H23 lung = system: NCI-H23 lung
OVCAR-5 ovarian = system: OVCAR-5 ovarian
UACC-257 melanoma = system: UACC-257 melanoma
TK-10 renal = system: TK-10 renal
KM12 colon = system: KM12 colon
HCT-15 colon = system: HCT-15 colon
SF-295 CNS = system: SF-295 CNS
MDA-MB-231 breast = system: MDA-MB-231 breast
K-562 leukemia = system: K-562 leukemia
HCT-116 colon = system: HCT-116 colon
NCI-H460 lung = system: NCI-H460 lung
SW-620 colon = system: SW-620 colon
SNB-19 CNS = system: SNB-19 CNS
DU-145 prostate = system: DU-145 prostate
MCF7 breast = system: MCF7 breast
SF-539 CNS = system: SF-539 CNS
SNB-75 CNS = system: SNB-75 CNS
CCRF-CEM leukemia = system: CCRF-CEM leukemia
NCI/ADR-RES ovarian = system: NCI/ADR-RES ovarian
UO-31 renal = system: UO-31 renal
ACHN renal = system: ACHN renal
SK-OV-3 ovarian = system: SK-OV-3 ovarian
SN12C renal = system: SN12C renal
UACC-62 melanoma = system: UACC-62 melanoma
NCI-H226 lung = system: NCI-H226 lung
MALME-3M melanoma = system: MALME-3M melanoma
HL-60(TB) leukemia = system: HL-60(TB) leukemia
LOX IMVI melanoma = system: LOX IMVI melanoma
T-47D breast = system: T-47D breast
HS 578T breast = system: HS 578T breast
OVCAR-4 ovarian = system: OVCAR-4 ovarian
SR leukemia = system: SR leukemia
SF-268 CNS = system: SF-268 CNS
SK-MEL-28 melanoma = system: SK-MEL-28 melanoma
OVCAR-8 ovarian = system: OVCAR-8 ovarian
IGROV1 ovarian = system: IGROV1 ovarian
HT29 colon = system: HT29 colon
A549 NSCLC = system: A549 NSCLC

Measured: TGI

CCOC(=O)[C@@H]1[C@@H]2NC(=O)N[C@@]1(C)Oc1ccccc12
> 100 µM: HOP-92 NSCLC | PC-3 prostate | MOLT-4 leukemia | COLO 205 colon | BT-549 breast | U251 CNS | CAKI-1 renal | A498 renal | M14 melanoma | HCC-2998 colon | MDA-N | 786-0 renal | NCI-H522 lung | EKVX NSCLC | SK-MEL-5 melanoma | RXF 393 renal | OVCAR-3 ovarian | SK-MEL-2 melanoma | MDA-MB-435 | HOP-62 NSCLC | RPMI-8226 leukemia | NCI-H23 lung | OVCAR-5 ovarian | UACC-257 melanoma | TK-10 renal | KM12 colon | HCT-15 colon | SF-295 CNS | MDA-MB-231 breast | K-562 leukemia | HCT-116 colon | NCI-H460 lung | SW-620 colon | SNB-19 CNS | DU-145 prostate | MCF7 breast | SF-539 CNS | SNB-75 CNS | CCRF-CEM leukemia | NCI/ADR-RES ovarian | UO-31 renal | ACHN renal | SK-OV-3 ovarian | SN12C renal | UACC-62 melanoma | NCI-H226 lung | MALME-3M melanoma | HL-60(TB) leukemia | LOX IMVI melanoma | T-47D breast | HS 578T breast | OVCAR-4 ovarian | SR leukemia | SF-268 CNS | SK-MEL-28 melanoma | OVCAR-8 ovarian | IGROV1 ovarian | HT29 colon

OC(CC(CC(O)(C(F)(F)F)C(F)(F)F)=NN=C(CC(O)(C(F)(F)F)C(F)(F)F)CC(O)(C(F)(F)F)C(F)(F)F)(C(F)(F)F)C(F)(F)F
> 10 µM: HOP-92 NSCLC | PC-3 prostate | MOLT-4 leukemia | COLO 205 colon | BT-549 breast | U251 CNS | CAKI-1 renal | A498 renal | M14 melanoma | HCC-2998 colon | MDA-N | 786-0 renal | NCI-H522 lung | EKVX NSCLC | SK-MEL-5 melanoma | RXF 393 renal | OVCAR-3 ovarian | SK-MEL-2 melanoma | MDA-MB-435 | HOP-62 NSCLC | RPMI-8226 leukemia | NCI-H23 lung | OVCAR-5 ovarian | UACC-257 melanoma | TK-10 renal | KM12 colon | HCT-15 colon | SF-295 CNS | MDA-MB-231 breast | K-562 leukemia | HCT-116 colon | NCI-H460 lung | SW-620 colon | SNB-19 CNS | DU-145 prostate | MCF7 breast | SF-539 CNS | SNB-75 CNS | CCRF-CEM leukemia | NCI/ADR-RES ovarian | ACHN renal | SK-OV-3 ovarian | SN12C renal | UACC-62 melanoma | NCI-H226 lung | MALME-3M melanoma | HL-60(TB) leukemia | A549 NSCLC | LOX IMVI melanoma | T-47D breast | HS 578T breast | OVCAR-4 ovarian | SR leukemia | SF-268 CNS | SK-MEL-28 melanoma | OVCAR-8 ovarian | IGROV1 ovarian | HT29 colon

CNC(=S)/C(C#N)=C(\N)N1CCN(C)CC1
> 100 µM: HOP-92 NSCLC | PC-3 prostate | MOLT-4 leukemia | COLO 205 colon | BT-549 breast | U251 CNS | CAKI-1 renal | A498 renal | M14 melanoma | HCC-2998 colon | MDA-N | 786-0 renal | NCI-H522 lung | EKVX NSCLC | SK-MEL-5 melanoma | RXF 393 renal | OVCAR-3 ovarian | SK-MEL-2 melanoma | MDA-MB-435 | HOP-62 NSCLC | RPMI-8226 leukemia | NCI-H23 lung | OVCAR-5 ovarian | UACC-257 melanoma | TK-10 renal | KM12 colon | HCT-15 colon | SF-295 CNS | MDA-MB-231 breast | K-562 leukemia | HCT-116 colon | SW-620 colon | SNB-19 CNS | DU-145 prostate | MCF7 breast | SF-539 CNS | SNB-75 CNS | CCRF-CEM leukemia | NCI/ADR-RES ovarian | UO-31 renal | ACHN renal | SK-OV-3 ovarian | SN12C renal | UACC-62 melanoma | NCI-H226 lung | MALME-3M melanoma | HL-60(TB) leukemia | A549 NSCLC | LOX IMVI melanoma | T-47D breast | HS 578T breast | SR leukemia | SF-268 CNS | OVCAR-8 ovarian | IGROV1 ovarian | HT29 colon
